Key:
[1] = target: T1, MAO-B (h) recombinant enzyme (Homo sapiens, UniProt P27338); design: Eurofins SafetyScreen 87 enzyme part: inhibition of control enzyme activity, single concentration; details: mean of 2, 10 µM, inhibitor
T1 construct: gene MAOB; recombinant enzyme

Lck kinase (h) = Lck kinase (h) (Homo sapiens, UniProt P06239); design: Eurofins SafetyScreen 87 enzyme part: inhibition of control enzyme activity, single concentration; details: mean of 2, 10 µM, inhibitor
IRK (h) (InsR) = IRK (h) (InsR) (Homo sapiens, UniProt P06213); design: Eurofins SafetyScreen 87 enzyme part: inhibition of control enzyme activity, single concentration; details: mean of 2, 10 µM, inhibitor
PKCalpha (h) = target: T2, PKCalpha (h) (Homo sapiens, UniProt P17252); design: Eurofins SafetyScreen 87 enzyme part: inhibition of control enzyme activity, single concentration; details: mean of 2, 10 µM, inhibitor
T2 construct: gene PRKCA

COX1(h) = target: T3, COX1(h) (Homo sapiens, UniProt P23219); design: Eurofins SafetyScreen 87 enzyme part: inhibition of control enzyme activity, single concentration; details: mean of 2, 10 µM, inhibitor
T3 construct: gene PTGS1
T3 sequence (P23219 whole entry): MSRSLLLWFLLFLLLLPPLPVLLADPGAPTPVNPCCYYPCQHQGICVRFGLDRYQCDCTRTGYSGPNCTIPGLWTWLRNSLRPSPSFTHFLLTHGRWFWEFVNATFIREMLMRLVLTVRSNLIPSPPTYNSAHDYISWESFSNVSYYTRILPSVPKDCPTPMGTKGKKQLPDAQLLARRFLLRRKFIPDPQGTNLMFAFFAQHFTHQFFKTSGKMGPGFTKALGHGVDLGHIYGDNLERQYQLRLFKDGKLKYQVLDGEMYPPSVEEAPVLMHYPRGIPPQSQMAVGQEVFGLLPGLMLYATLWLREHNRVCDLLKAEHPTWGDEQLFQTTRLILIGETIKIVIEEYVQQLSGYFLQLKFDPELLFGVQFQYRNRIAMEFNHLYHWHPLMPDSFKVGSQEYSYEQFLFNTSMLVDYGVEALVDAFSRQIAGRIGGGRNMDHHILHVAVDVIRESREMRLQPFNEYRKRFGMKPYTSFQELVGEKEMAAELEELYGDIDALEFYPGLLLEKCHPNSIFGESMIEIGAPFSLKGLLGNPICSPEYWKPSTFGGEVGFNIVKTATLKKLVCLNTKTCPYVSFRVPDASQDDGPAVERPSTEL

ACE (h) = ACE (h) (Homo sapiens, UniProt P12821); design: Eurofins SafetyScreen 87 enzyme part: inhibition of control enzyme activity, single concentration; details: mean of 2, 10 µM, inhibitor
ACE (h), sequence (P12821 whole entry): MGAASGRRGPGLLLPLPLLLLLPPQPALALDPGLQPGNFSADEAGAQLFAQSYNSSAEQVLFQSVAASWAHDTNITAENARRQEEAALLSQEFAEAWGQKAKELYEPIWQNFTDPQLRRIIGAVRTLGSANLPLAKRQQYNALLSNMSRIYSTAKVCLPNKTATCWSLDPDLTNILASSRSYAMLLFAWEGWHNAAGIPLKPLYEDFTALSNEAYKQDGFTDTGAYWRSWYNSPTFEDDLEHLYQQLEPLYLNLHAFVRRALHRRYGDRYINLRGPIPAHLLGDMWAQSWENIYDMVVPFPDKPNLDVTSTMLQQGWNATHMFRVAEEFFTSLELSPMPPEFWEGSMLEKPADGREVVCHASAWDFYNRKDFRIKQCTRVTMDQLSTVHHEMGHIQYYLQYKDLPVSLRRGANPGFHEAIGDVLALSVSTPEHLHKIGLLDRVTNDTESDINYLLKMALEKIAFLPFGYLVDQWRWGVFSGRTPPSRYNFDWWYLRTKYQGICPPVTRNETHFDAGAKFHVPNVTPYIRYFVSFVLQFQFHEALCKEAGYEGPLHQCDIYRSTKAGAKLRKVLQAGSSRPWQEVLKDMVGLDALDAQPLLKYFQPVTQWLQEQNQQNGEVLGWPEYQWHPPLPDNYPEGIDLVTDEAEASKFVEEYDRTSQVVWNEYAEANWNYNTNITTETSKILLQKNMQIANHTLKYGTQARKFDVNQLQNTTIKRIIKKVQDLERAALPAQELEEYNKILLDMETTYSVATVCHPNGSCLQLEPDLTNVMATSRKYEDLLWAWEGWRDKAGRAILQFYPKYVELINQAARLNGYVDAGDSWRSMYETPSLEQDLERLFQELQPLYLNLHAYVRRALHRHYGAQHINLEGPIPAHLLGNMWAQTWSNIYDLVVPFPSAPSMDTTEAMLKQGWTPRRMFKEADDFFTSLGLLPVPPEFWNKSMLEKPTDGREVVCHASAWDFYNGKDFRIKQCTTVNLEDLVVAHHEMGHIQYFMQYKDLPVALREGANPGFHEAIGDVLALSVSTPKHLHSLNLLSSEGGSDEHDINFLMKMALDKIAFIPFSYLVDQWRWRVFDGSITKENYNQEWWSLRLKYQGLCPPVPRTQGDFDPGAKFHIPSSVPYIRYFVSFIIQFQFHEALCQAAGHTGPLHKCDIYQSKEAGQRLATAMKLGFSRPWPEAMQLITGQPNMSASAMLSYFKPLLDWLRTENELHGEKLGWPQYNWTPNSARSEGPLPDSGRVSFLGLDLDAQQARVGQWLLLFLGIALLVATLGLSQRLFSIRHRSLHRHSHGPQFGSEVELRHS

COX2(h) = target: T4, COX2(h) (Homo sapiens, UniProt P35354); design: Eurofins SafetyScreen 87 enzyme part: inhibition of control enzyme activity, single concentration; details: mean of 2, 10 µM, inhibitor
T4 construct: gene PTGS2
T4 sequence (P35354 whole entry): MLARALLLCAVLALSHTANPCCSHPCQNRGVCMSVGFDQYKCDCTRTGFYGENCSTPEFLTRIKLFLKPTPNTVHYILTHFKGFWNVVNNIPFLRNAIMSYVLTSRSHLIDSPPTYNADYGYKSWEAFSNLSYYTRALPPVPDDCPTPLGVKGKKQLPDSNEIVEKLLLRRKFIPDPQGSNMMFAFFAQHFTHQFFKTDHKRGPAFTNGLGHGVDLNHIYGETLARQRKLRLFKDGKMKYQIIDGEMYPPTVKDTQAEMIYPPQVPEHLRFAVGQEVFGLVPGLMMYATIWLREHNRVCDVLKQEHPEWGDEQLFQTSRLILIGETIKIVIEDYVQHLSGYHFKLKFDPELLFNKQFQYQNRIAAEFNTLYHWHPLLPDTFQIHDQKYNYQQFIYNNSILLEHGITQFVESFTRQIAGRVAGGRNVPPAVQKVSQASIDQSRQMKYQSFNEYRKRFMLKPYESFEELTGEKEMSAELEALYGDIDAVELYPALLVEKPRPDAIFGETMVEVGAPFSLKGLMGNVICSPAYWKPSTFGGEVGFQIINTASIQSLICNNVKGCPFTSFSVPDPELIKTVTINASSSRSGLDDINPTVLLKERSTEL

PDE4D2 (h) = target: T5, PDE4D2 (h) (Homo sapiens, UniProt Q08499); design: Eurofins SafetyScreen 87 enzyme part: inhibition of control enzyme activity, single concentration; details: mean of 2, 10 µM, inhibitor
T5 construct: gene PDE4D; isoform PDE4D2

PI3Kβ = target: T6, PI3Kβ (Homo sapiens, UniProt P42338); assay: biochemical; design: Purified kinase inhibition, Z'-LYTE (HER, mTOR, DNA-PK) or Adapta (PI3K), ATP at Km apparent
T6 construct: gene PIK3CB; Km ATP
Experimental: (§1) IC50 values were determined at a concentration of ATP corresponding to the Km apparent for that kinase.

HER2 = target: T7, HER2 (Homo sapiens, UniProt P04626); assay: biochemical; design: Purified kinase inhibition, Z'-LYTE (HER, mTOR, DNA-PK) or Adapta (PI3K), ATP at Km apparent
T7 construct: gene ERBB2; Km ATP
T7 sequence (P04626 whole entry): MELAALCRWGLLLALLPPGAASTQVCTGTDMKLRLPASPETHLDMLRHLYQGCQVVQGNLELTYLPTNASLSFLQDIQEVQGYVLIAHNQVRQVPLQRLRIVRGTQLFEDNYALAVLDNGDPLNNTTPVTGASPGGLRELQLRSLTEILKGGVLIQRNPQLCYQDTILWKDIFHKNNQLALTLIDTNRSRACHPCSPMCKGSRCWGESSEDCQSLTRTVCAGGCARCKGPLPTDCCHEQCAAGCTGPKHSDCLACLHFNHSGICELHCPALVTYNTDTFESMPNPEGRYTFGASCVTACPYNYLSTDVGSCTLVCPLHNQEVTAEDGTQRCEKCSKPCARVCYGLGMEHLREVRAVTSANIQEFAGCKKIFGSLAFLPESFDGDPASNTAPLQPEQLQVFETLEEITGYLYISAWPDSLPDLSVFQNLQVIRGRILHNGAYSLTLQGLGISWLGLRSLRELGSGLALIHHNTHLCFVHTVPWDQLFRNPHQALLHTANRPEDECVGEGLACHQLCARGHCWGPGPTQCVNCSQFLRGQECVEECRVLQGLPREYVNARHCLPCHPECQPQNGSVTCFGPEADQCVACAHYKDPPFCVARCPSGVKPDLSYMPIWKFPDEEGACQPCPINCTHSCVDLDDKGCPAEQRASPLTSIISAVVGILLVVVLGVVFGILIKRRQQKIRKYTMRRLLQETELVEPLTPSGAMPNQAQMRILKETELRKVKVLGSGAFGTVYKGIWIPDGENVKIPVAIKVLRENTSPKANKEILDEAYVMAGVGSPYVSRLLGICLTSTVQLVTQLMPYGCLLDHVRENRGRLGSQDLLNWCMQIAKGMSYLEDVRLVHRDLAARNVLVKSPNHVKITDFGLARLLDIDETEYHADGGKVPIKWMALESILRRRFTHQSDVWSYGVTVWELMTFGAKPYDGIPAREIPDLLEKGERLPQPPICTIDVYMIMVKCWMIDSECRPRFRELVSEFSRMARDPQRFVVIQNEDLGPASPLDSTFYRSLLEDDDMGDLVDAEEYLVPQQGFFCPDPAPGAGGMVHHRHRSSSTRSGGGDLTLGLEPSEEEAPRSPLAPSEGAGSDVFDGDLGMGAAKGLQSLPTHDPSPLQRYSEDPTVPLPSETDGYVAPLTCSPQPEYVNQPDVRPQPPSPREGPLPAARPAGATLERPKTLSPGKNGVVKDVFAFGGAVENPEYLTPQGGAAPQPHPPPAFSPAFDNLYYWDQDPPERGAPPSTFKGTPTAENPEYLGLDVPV
Experimental: as §1

mTOR = target: T8, mTOR (Homo sapiens, UniProt P42345); assay: biochemical; design: Purified kinase inhibition, Z'-LYTE (HER, mTOR, DNA-PK) or Adapta (PI3K), ATP at Km apparent
T8 construct: Km ATP
Experimental: as §1

HER4 = target: T9, HER4 (Homo sapiens, UniProt Q15303); assay: biochemical; design: Purified kinase inhibition, Z'-LYTE (HER, mTOR, DNA-PK) or Adapta (PI3K), ATP at Km apparent
T9 construct: gene ERBB4; Km ATP
Experimental: as §1

Lck kinase (h), sequence (P06239 whole entry): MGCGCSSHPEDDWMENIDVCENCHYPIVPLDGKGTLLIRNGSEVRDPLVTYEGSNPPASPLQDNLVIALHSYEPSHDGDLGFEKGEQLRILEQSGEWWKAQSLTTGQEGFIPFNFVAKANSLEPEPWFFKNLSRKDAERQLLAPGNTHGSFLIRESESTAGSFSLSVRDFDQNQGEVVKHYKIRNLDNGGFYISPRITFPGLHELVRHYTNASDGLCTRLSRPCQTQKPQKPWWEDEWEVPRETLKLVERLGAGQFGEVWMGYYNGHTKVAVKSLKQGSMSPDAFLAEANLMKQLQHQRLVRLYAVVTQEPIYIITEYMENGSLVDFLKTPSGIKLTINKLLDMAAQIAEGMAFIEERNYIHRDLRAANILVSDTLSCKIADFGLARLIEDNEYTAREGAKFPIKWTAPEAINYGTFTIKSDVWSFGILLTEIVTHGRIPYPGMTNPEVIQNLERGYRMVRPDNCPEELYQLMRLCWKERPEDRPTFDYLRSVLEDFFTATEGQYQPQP

SMILES: C[C@@H](Nc1ncnc2ccc(-c3cnc(Cl)c(NS(C)(=O)=O)c3)cc12)c1ccccc1 [MTX-531, (R)-N-(2-chloro-5-(4-((1-phenylethyl)amino)quinazolin-6-yl)pyridin-3-yl)methane-sulfonamide]
- % inhibition of control enzyme activity [1]: 10%
- % inhibition of control enzyme activity (Lck kinase (h)): 4%
- % inhibition of control enzyme activity (IRK (h) (InsR)): 0%
- % inhibition of control enzyme activity (PKCalpha (h)): -3%
- % inhibition of control enzyme activity (COX1(h)): -4%
- % inhibition of control enzyme activity (ACE (h)): -2%
- % inhibition of control enzyme activity (COX2(h)): -3%
- % inhibition of control enzyme activity (PDE4D2 (h)): 88%
- IC50 (PI3Kβ): 233 nM
- IC50 (HER2): 2500 nM
- IC50 (mTOR): 105 nM
- IC50 (HER4): > 10000 nM

— paper PMC11357990, “A first-in-class selective inhibitor of EGFR and PI3K offers a single-molecule approach to targeting adaptive resistance” (Nature Cancer, 2024)
